The record followed here is article PMC11230938 (2024).

Assay [1] deals with OTC8 (DNA, aptamer) GACGACGGGCAAGATCTATTCTTCACGTTCACCTTTGTCGTC
The assay is described as follows: intrinsic fluorescence titration of OTC. The following applies: 50 mM NaCl, 2 mM MgCl2; 10 mM MES pH 6.0; 100 nM OTC; 1 min equilibration.

The subject of assay [2] is OTC43 (DNA, aptamer) GACGACTGGACCCTTCTGTGGTAGATTCTATCTAATGTCGTC
The assay is described as follows: ITC. As to conditions: 50 mM NaCl, 2 mM MgCl2; 10 mM MES pH 6.0, 25 °C; 9 μM aptamer, 150 μM OTC.

Assay [3] concerns OTC2 (DNA, aptamer) GACGACGCAATGTCCTTCGCAGGATCCGTTTACGGTGTCGTC
The assay is described as follows: intrinsic fluorescence titration of OTC. As to conditions: 50 mM NaCl, 2 mM MgCl2; 10 mM MES pH 6.0; 100 nM OTC; 12 min equilibration per addition (0.57 μM after 1 min).

The subject of assay [4] is OTC22 (DNA, aptamer) GACGACAAAGCGTCTTACGTGCATACTTTTGTTGTCGTC
The assay is described as follows: intrinsic fluorescence titration of OTC. As to conditions: 50 mM NaCl, 2 mM MgCl2; 10 mM MES pH 6.0; 100 nM OTC; 1 min equilibration.

For assay [5], the system named is OTC11 (DNA, aptamer) GACGACGCAGACATCTTGTGTGTCATAGCGCGCTACGTCGTC
The assay is described as follows: intrinsic fluorescence titration of OTC. The following applies: 50 mM NaCl, 2 mM MgCl2; 10 mM MES pH 6.0; 100 nM OTC; 1 min equilibration.

The test system of assay [6] is OTC22 (DNA, aptamer) GACGACAAAGCGTCTTACGTGCATACTTTTGTTGTCGTC
The assay is described as follows: ITC. As to conditions: 50 mM NaCl, 2 mM MgCl2; 10 mM MES pH 6.0, 25 °C; 9 μM aptamer, 150 μM OTC.

In assay [7] the test system is OTC34 (DNA, aptamer) GACGACGCAGTCTGATTTCAGCCATAGTTTTACTGCGTCGTC
The assay is described as follows: intrinsic fluorescence titration of OTC. As to conditions: 50 mM NaCl, 2 mM MgCl2; 10 mM MES pH 6.0; 100 nM OTC; 1 min equilibration.

Assay [8] relates to OTC43 (DNA, aptamer) GACGACTGGACCCTTCTGTGGTAGATTCTATCTAATGTCGTC
The assay is described as follows: intrinsic fluorescence titration of OTC. As to conditions: 50 mM NaCl, 2 mM MgCl2; 10 mM MES pH 6.0; 100 nM OTC; 1 min equilibration.

The subject of assay [9] is OTC23 (DNA, aptamer) GACGACGTGCTATTGCCTCAGTCATTCTCTGAGTCGTCGTC
The assay is described as follows: intrinsic fluorescence titration of OTC. The following applies: 50 mM NaCl, 2 mM MgCl2; 10 mM MES pH 6.0; 100 nM OTC; 1 min equilibration.

Assay [10] concerns OTC26 (DNA, aptamer) GACGACATAGCTTGCTACCACTCGTCTCCGTAGTGGCAGTCGTC
The assay is described as follows: intrinsic fluorescence titration of OTC. The following applies: 50 mM NaCl, 2 mM MgCl2; 10 mM MES pH 6.0; 100 nM OTC; 1 min equilibration.

Assay [11] concerns OTC2 (DNA, aptamer) GACGACGCAATGTCCTTCGCAGGATCCGTTTACGGTGTCGTC
The assay is described as follows: ITC. As to conditions: 50 mM NaCl, 2 mM MgCl2; 10 mM MES pH 6.0, 25 °C; 9 μM aptamer, 150 μM OTC.

In the case of `CN(C)[C@@H]1C(=O)C(C(N)=O)=C(O)[C@@]2(O)C(=O)C3=C(O)c4c(O)cccc4[C@@](C)(O)[C@H]3[C@H](O)[C@@H]12`, the Kd (usually the free concentration of one partner at which half of the binding sites on the other are occupied at equilibrium, for simple one-to-one binding) in [1] turned out to be 200 nM; in [2] it was 1600 ± 570 nM; in [3] it was 81 nM; in [4] it was 290 nM; in assay [5] it was 320 nM; in assay [6] it was 490 ± 110 nM. The Kd turned out to be 530 nM in assay [7]; 690 nM in assay [8]; 360 nM in [9]; 590 nM in assay [10]; 62 ± 20 nM in assay [11].
